Experiment: Reverse-phase HPLC retention time as indicator of hydrophilicity/lipophilicity
Type: physicochemical
Conditions: chromatographic, COSMOSIL 5C18-AR-300 (4.6 x 150 mm), eluent A H2O/0.1% TFA, eluent B CH3CN/0.1% TFA, A:B = 80:20 to 20:80 in 25 min, detection 649 nm (Cy5/sulfoCy5) or 545 nm (Cy3/sulfoCy3), used as indicator of hydrophilicity/lipophilicity
Source text: General chemicals were of the best grade available, supplied by FUJIFILM Wako Pure Chemical Corporation (Osaka, Japan), Tokyo Chemical Industries Co., Ltd. (Tokyo, Japan), KANTO CHEMICAL Co., INC. (Tokyo, Japan), and Sigma-Aldrich Co. LLC (St. Louis, MO, USA), and were used without further purification. Cy3/Cy5-SE was purchased from Abcam (Cambridge, UK) and sulfoCy3/sulfoCy5-SE was purchased from AAT Bioquest (Sunnyvale, CA, USA). Peptide A was purchased from GlyTech, Inc. (Kyoto, Japan). MALDI-TOF mass spectra (MS) were measured with an Autoflex III TOF/TOF (Bruker Corporation, Billerica, MA, USA). Purification and high-performance liquid chromatography (HPLC) analyses were performed by HPLC systems (Shimadzu Corporation, Kyoto, Japan) with reverse-phase columns: the COSMOSIL 5C18-AR-300 (4.6 × 150 mm) (NACALAI TESQUE, INC., Kyoto, Japan) for analysis and the COSMOSIL 5C18-AR-300 (10 mm × 150 mm) (NACALAI TESQUE, INC.) for purification, using eluent A (H2O/0.1% trifluoroacetic acid (TFA)) and eluent B (CH3CN/0.1% TFA). Fluorescence images of living cells were taken on a BX41 upright fluorescent microscope (Olympus Corporation, Tokyo, Japan) equipped with a suitable filter set for Cy3/Cy5 dyes; it consisted of a 530–550 nm excitation filter and a 575–625 nm emission filter for the Cy3 dye, and a 608–648 nm excitation filter and a 652–732 nm emission filter for the Cy5 dye. […] Fluorescence images of animals and organs were taken with a FluorVivo Imaging System (Indec BioSystems, Santa Clara, CA, USA) equipped with a suitable filter set for a Cy5 dye; it consisted of a 600–640 nm excitation filter and a 665 nm long pass filter. […]
Cy3/Cy5-peptide A and sulfoCy3/sulfoCy5-peptide A were synthesized using commercially available Cy3/Cy5 succinimidyl ester (SE) and sulfoCy3/sulfoCy5 SE (Figure 1). […] Dye-SE and dye-peptide A were analyzed by HPLC under the same conditions; the retention times are shown in Table 1 because they are indicators of hydrophilicity/lipophilicity. […]
Figure S1. […] The compounds were analyzed by reverse-phase HPLC (eluent A: […]

Row | Retention Time [min] | Compound
1 | 7.3 | CCN1C(=CC=CC2=[N+](CCCCCC(=O)ON3C(=O)CCC3=O)c3ccc(S(=O)(=O)O)cc3C2(C)C)C(C)(C)c2cc(S(=O)(=O)[O-])ccc21 [sulfoCy3-SE]
2 | 9.3 | CCN1C(=CC=CC=CC2=[N+](CCCCCC(=O)ON3C(=O)CCC3=O)c3ccc(S(=O)(=O)O)cc3C2(C)C)C(C)(C)c2cc(S(=O)(=O)[O-])ccc21 [sulfoCy5-SE]
3 | 22.6 | Cy5 succinimidyl ester [Cy5-SE]

Reference: article PMC8124942, “In Vitro and In Vivo Cell Uptake of a Cell-Penetrating Peptide Conjugated with Fluorescent Dyes Having Different Chemical Properties” (Cancers, 2021)
